Assay [1] deals with ERK1/2 phosphorylation in SH-SY5Y cells. The assay is described as follows: ERK1/2 phosphorylation (nongenomic response), AlphaScreen SureFire. Set-up: nongenomic response Emax (±95% CI): unit not given here. Format: cell-based, human. The note with it: for EC50: Homo sapiens, read-out: nongenomic response EC50 (±95% CI); for nongenomic E max compared with ATRA: nonoverlapping 95% CI. In a few lines: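 SH-SY5Y cells (100,000/well) were serum-starved for 24 h, then exposed to retinoids in serum-free DMEM for 60 min at 37 °C with 0.1% DMSO final. Phospho-ERK1/2 in lysates was read by AlphaScreen SureFire. Values come from sigmoidal log(agonist)–response fits, as mean ± SEM of three independent experiments run in triplicate.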
Background: In Alpha technology, singlet oxygen from a donor bead excites a nearby acceptor bead.

In the next assay the test system is SH-SY5Y cells. The assay is described as follows: Neurite outgrowth. The class given is cell-based, human. The note with it: for fold induction at 0.01 µM: Homo sapiens, SH-SY5Y, 120 h, read-out: fold increase in neurite outgrowth. An outline of the steps:
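After 24 h on poly-L-lysine-coated coverslips in DMEM/10% FCS, SH-SY5Y cells received retinoids at 10 μM or 10 nM (final DMSO 0.01 or 0.0001%) for 5 days at 37 °C. Cells fixed and stained for β-III tubulin. Average neurite length per image (total length/neurite number, 10 images per coverslip), mean ± SEM of three experiments.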

The test system of assay [2] is Sil-15 cells containing a RARE driving a lacZ reporter. The assay is described as follows: X-Gal-based RA reporter assay (genomic response). The class given is cell-based. Also on record: genomic response Emax (±95% CI): unit not given here. The note with it: for genomic response Emax (±95% CI) / EC50: Sil-15 reporter cells; for genomic response Emax (±95% CI): absorbance at 650 nm; for genomic E max compared with ATRA / genomic EC50 compared with ATRA: nonoverlapping 95% CI; for EC50: read-out: genomic response EC50 (±95% CI), overnight, 10^–6 to 10^–14 M. An outline of the steps:
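F9-derived Sil-15 cells with DR5 RARE-lacZ, 100,000/well, exposed overnight at 37 °C to retinoids at 10^–6 to 10^–14 M. Fixed, X-gal developed, read at 650 nm; EC50 and Emax from sigmoidal log(agonist)–response fit, mean ± SEM of three experiments.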
A general note: Reporter assays use an easily measured gene product as a stand-in for the process of interest.

Setting [3] is: 10 nM compound, 5 days, in comparison to nontreated cells.

The structures appear in SMILES notation. Read-outs that look alike come from different tables or passages of the source.

Broadly, the EC50 is the concentration that produces a half-maximal response. Turning to `Cc1sc(-c2ccc(C(=O)O)cc2)nc1-c1cnc2c(n1)C(C)(C)CCC2(C)C` [Compound 40, 4-[5-Methyl-4-(5,5,8,8-tetramethyl-5,6,7,8-tetrahydroquinoxalin-2-yl)-1,3-thiazol-2-yl]benzoic Acid], in assay [1] (SH-SY5Y cells, 1 h), the 50% effective concentration (EC50) stood at 0.0532 nM and the “nongenomic response Emax (±95% CI)” value is 40.7 (±1.02). In addition, in assay [1], the “nongenomic E max compared with ATRA” value is on record as “E max values significantly lower than ATRA”. Moreover, in the assay with SH-SY5Y cells (setting [3]), the fold induction at 0.01 µM was 1.9. In assay [2], the “genomic response Emax (±95% CI)” value is on record as 181 (±7.45), the “genomic E max compared with ATRA” value is “significantly higher E max than ATRA”, the “genomic EC50 compared with ATRA” value is given as “significantly lower EC50 than ATRA” and the EC50 came out at 0.00232 nM.

`Cc1sc(-c2ccc(C(=O)O)cn2)nc1-c1cnc2c(n1)C(C)(C)CCC2(C)C` [Compound 41, 6-[5-Methyl-4-(5,5,8,8-tetramethyl-5,6,7,8-tetrahydroquinoxalin-2-yl)-1,3-thiazol-2-yl]pyridine-3-carboxylic Acid]: in assay [1] (SH-SY5Y cells, 1 h), the EC50 came out at 15.4 nM and the “nongenomic response Emax (±95% CI)” value is given as 55.26 (±0.00). For the same compound, the “nongenomic E max compared with ATRA” value in assay [1] was “E max values significantly higher than ATRA”. Further, the fold induction at 0.01 µM in the assay with SH-SY5Y cells (setting [3]) was 1.7. In assay [2], the “genomic response Emax (±95% CI)” value was 144 (±16.5), the “genomic E max compared with ATRA” value is listed as “significantly lower E max than ATRA”, the “genomic EC50 compared with ATRA” value is on record as “significantly higher EC50 values than ATRA” and the half-maximal effective concentration (EC50) came to 16.9 nM.

On to `Cc1sc(-c2ccc(C(=O)O)c(F)c2)nc1-c1cnc2c(n1)C(C)(C)CCC2(C)C` [Compound 42, 2-Fluoro-4-[5-methyl-4-(5,5,8,8-tetramethyl-5,6,7,8-tetrahydroquinoxalin-2-yl)-1,3-thiazol-2-yl]benzoic Acid], for which, in assay [1] (SH-SY5Y cells, 1 h), the half-maximal effective concentration (EC50) stood at 12.5 nM and the “nongenomic response Emax (±95% CI)” value was 54.1 (±4.07). Moreover, the fold induction at 0.01 µM in the assay on SH-SY5Y cells (setting [3]) amounted to 1.7. In assay [2], the “genomic E max compared with ATRA” value is “significantly higher E max than ATRA”, the “genomic EC50 compared with ATRA” value is reported as “significantly lower EC50 than ATRA” and the half-maximal effective concentration (EC50) was 0.0155 nM.

Consider `Cc1sc(-c2ccc(C(=O)O)cc2F)nc1-c1cnc2c(n1)C(C)(C)CCC2(C)C` [Compound 43, 3-Fluoro-4-[5-methyl-4-(5,5,8,8-tetramethyl-5,6,7,8-tetrahydroquinoxalin-2-yl)-1,3-thiazol-2-yl]benzoic Acid], for which, in assay [1] (SH-SY5Y cells, 1 h), the “induction of ERK1/2 phosphorylation (nongenomic activity)” value is “lacked nongenomic activity”, the “nongenomic response EC50 (±95% CI)” value is listed as “no response” and the “nongenomic response Emax (±95% CI)” value was “no response”. Moreover, the fold induction at 0.01 µM with SH-SY5Y cells (setting [3]) stood at 1.8. Also, in assay [2], the “genomic response Emax (±95% CI)” value is recorded as 195 (±35.2), the “genomic E max compared with ATRA” value was “significantly higher E max than ATRA” and the concentration for a half-maximal effect (EC50) was determined as 1.64 nM.

With `Cc1sc(-c2ccc(C(=O)O)cc2)nc1-c1ccc2c(c1)C(C)(C)CCC2(C)C` [GZ25, reference compound], in assay [1] (SH-SY5Y cells, 1 h), the EC50 was 3.57 nM and the “nongenomic response Emax (±95% CI)” value is recorded as 76.6 (±2.61). For the same compound, the “nongenomic E max compared with ATRA” value in assay [1] was “E max values significantly higher than ATRA”. For the same compound, the “induction of neurite outgrowth compared with ATRA” value in the assay on SH-SY5Y cells (10 nM, 5 days) is recorded as “induced significant neurite outgrowth compared to ATRA”. Also, the fold induction at 0.01 µM in the assay with SH-SY5Y cells was 1.8. In assay [2], the “genomic response Emax (±95% CI)” value is 209 (±15.5), the “genomic E max compared with ATRA” value was “significantly higher E max than ATRA”, the “genomic EC50 compared with ATRA” value is recorded as “significantly lower EC50 than ATRA” and the EC50 came out at 0.184 nM.

The values are drawn from publication PMC12163635, “Synthetic Retinoids for the Modulation of Genomic and Nongenomic Processes in Neurodegenerative Diseases” (ACS Omega, 2025).
